{"source": "patent US20190390170A1", "about": "“METHODS FOR MODULATING PRODUCTION PROFILES OF RECOMBINANT PROTEINS” (ARES TRADING S.A., priority 2016, published 2019)", "key": {"[1]": {"system": "CHO-S cells expressing a fusion protein P1", "assay": "Fed-batch culture of P1 cells with valeric acid (viable cell density, viability, titer)", "type": "cell-based, Chinese hamster", "experimental": "Assays were performed with 2 CHO cell lines: • CHO-S cells expressing a fusion protein P1, herein “Cells P1” or “P1 cells”. “P1” is an IgG1 fusion protein, comprising one part directed against a membrane protein (IgG part) linked to a second part targeting a soluble immune protein. Its isoelectric point (pi) is about 6.3-7.0. • CHO-K1 cells expressing a monoclonal antibody P2, herein “Cells P2” or “P2 cells”. “P2” is a humanised monoclonal antibody directed against a receptor found on the cell membrane. Its isoelectric point (pi) is about 9.20-9.40. Cell expansion was performed in tubes in a medium suitable for cell expansion. Assays in fed-batch started after at least one week expansion. Cells expressing both P1 and P2 were inoculated at 0.2×10^6 viable cells per millilitre (mL). All assays were performed in fed-batch culture. The host cells were cultured in fed-batch system either in microplates (“Deep well plate”, “DWP”) or in Spin Tubes®, and incubated at 36.5° C., 90% relative humidity, 5% CO2 and 320 rpm shaking during 14 days. A stock solution of valeric acid was prepared in a standard production proprietary medium. The valeric acid concentration of this stock solution was 195 mM. The stock solution was used to supplement media to test different valeric acid concentrations from the beginning of the culture (day 0; tested concentrations: 1, 1.5 and 2 mM). The solution was also used like a feed to supplement the valeric acid to the culture at different time points during the fed-batch (day 3, 4, 5 or 7). When the solution was used like a feed, the target concentration in the culture was always 1.5 mM. Viable cell density and viability were measured with the Guava easyCyte® flow cytometer or with the ViCell. Antibody titres were measured with the fortéBIO Octet® or with Biacore C®."}, "[2]": {"system": "CHO-K1 cells expressing a monoclonal antibody P2", "assay": "Fed-batch culture of P2 cells with valeric acid (viable cell density, viability, titer)", "type": "cell-based, Chinese hamster", "experimental": "Assays were performed with 2 CHO cell lines: • CHO-S cells expressing a fusion protein P1, herein “Cells P1” or “P1 cells”. “P1” is an IgG1 fusion protein, comprising one part directed against a membrane protein (IgG part) linked to a second part targeting a soluble immune protein. Its isoelectric point (pi) is about 6.3-7.0. • CHO-K1 cells expressing a monoclonal antibody P2, herein “Cells P2” or “P2 cells”. “P2” is a humanised monoclonal antibody directed against a receptor found on the cell membrane. Its isoelectric point (pi) is about 9.20-9.40. Cell expansion was performed in tubes in a medium suitable for cell expansion. Assays in fed-batch started after at least one week expansion. Cells expressing both P1 and P2 were inoculated at 0.2×10^6 viable cells per millilitre (mL). All assays were performed in fed-batch culture. The host cells were cultured in fed-batch system either in microplates (“Deep well plate”, “DWP”) or in Spin Tubes®, and incubated at 36.5° C., 90% relative humidity, 5% CO2 and 320 rpm shaking during 14 days. A stock solution of valeric acid was prepared in a standard production proprietary medium. The valeric acid concentration of this stock solution was 195 mM. The stock solution was used to supplement media to test different valeric acid concentrations from the beginning of the culture (day 0; tested concentrations: 1, 1.5 and 2 mM). The solution was also used like a feed to supplement the valeric acid to the culture at different time points during the fed-batch (day 3, 4, 5 or 7). When the solution was used like a feed, the target concentration in the culture was always 1.5 mM. Viable cell density and viability were measured with the Guava easyCyte® flow cytometer or with the ViCell. Antibody titres were measured with the fortéBIO Octet® or with Biacore C®. In this experiment the addition of 1.5 mM valeric acid to the culture on day 03, 04 or 05 was tested. For this experiment a CHO-k1 cell line (P2 cells) was used to confirm that valeric acid has the same effect than on CHO-S cells (P1 cells as discussed in a.)."}, "[3]": {"details": "valeric acid in media on day 0 (1, 1.5 and 2 mM)"}, "[4]": {"details": "1.5 mM valeric acid added day 03, 04 or 05, until day 12"}}}
{"smiles": "CCCCC(=O)O", "note": "[valeric acid]", "values": [{"measurement": "viability of the culture compared to control", "setting": "[1]; 1.5 mM valeric acid added as feed (day 3, 5 or 7), as of day 12", "result": "prolonged compared to the control runs"}, {"measurement": "cell viability compared to control", "setting": "[1]; 1.5 mM valeric acid added as feed (day 3, 5 or 7), until day 11", "result": "no impact on cell viability until day 11"}, {"measurement": "increase of titer compared to control", "setting": "[1]; 1.5 mM valeric acid added as feed at day 3, titer at day 12", "result": "about 20%"}, {"measurement": "increase of titer compared to control", "setting": "[1]; 1.5 mM valeric acid added as feed at day 5, titer at day 12", "result": "about 30%"}, {"measurement": "increase of titer compared to control", "setting": "[1]; 1.5 mM valeric acid added as feed at day 7, titer at day 12", "result": "about 20%"}, {"measurement": "cell growth rate compared to control", "setting": "[1]; 1.5 mM valeric acid added at day 3", "result": "slowed down"}, {"measurement": "final titer", "setting": "[1]; [3]", "result": "not improved"}, {"measurement": "maximum viable cell density", "setting": "[1]; [3]", "result": "The higher the concentration, the lower the maximum viable cell density"}, {"measurement": "viability", "setting": "[1]; [3]", "result": "maintained longer than for control experiment"}, {"measurement": "impact on cell density and titer", "setting": "[1]; valeric acid in the media on day 0", "result": "very negative impact on both cell density and titer"}, {"measurement": "viability compared to control culture", "setting": "[2]; 1.5 mM valeric acid added day 03, 04 or 05, starting day 13", "result": "prolonged compared to the control culture"}, {"measurement": "cell viability compared to control", "setting": "[2]; [4]", "result": "no impact on cell viability"}, {"measurement": "titer compared to control", "setting": "[2]; [4]", "result": "comparable to control"}, {"measurement": "maximum viable cell density compared to control", "setting": "[2]; 1.5 mM valeric acid added earlier during the culture (day 03, 04 or 05)", "result": "decreased"}, {"measurement": "titer increase compared to control", "setting": "[2]; 1.5 mM valeric acid at day 3, titer at day 17", "result": "about 25%"}, {"measurement": "titer increase compared to control", "setting": "[2]; 1.5 mM valeric acid at day 5, titer at day 17", "result": "about 35%"}, {"measurement": "titer increase compared to control", "setting": "[2]; 1.5 mM valeric acid at day 7 (so in the source), titer at day 17", "result": "about 25%"}, {"measurement": "titer obtained", "setting": "[2]; optimal valeric acid condition, after day 17 (data not shown), control 0.9 g/L", "result": "~5", "unit": "g/L"}]}
